According to patent US9914983B2, “Apoptosis-inducing agent” (Nitto Denko Corporation, priority 2012, dated 2018):

Key:
[1] = target: Akt2 (Homo sapiens, UniProt P31751); conditions: known from literature (Barnett 2005, Lindsley 2005, Zhao 2005); cited from earlier work
[2] = target: Akt1 (Homo sapiens, UniProt P31749); conditions: known from literature (Barnett 2005, Lindsley 2005, Zhao 2005); cited from earlier work
[3] = target: Akt3 (Homo sapiens, UniProt Q9Y243); conditions: known from literature (Barnett 2005, Lindsley 2005, Zhao 2005); cited from earlier work
Akt3, sequence (Q9Y243 whole entry, species assumed): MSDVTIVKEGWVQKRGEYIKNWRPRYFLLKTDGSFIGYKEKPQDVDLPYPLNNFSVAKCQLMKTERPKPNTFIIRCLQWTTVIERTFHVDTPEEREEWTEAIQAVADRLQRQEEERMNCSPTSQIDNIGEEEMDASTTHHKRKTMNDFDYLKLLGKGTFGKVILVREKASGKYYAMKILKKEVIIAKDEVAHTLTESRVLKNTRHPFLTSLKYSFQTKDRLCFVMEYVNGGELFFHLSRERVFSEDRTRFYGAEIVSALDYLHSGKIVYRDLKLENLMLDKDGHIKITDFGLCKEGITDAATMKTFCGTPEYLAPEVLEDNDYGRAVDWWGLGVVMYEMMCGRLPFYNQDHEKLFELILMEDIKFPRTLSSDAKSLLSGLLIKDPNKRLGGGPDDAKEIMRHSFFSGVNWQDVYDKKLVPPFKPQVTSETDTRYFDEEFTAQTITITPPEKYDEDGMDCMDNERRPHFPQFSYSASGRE

[4] = test system: PANC-1 cells; experiment: Cell proliferation (cell counting) after siRNA knockdown in PANC-1 cells; format: cell-based; conditions: 10 to 50 nM siRNA tested, cell number 4 days after transfection, FIG. 1
Description: (§1) 1×10^6 PANC-1 cells were plated on a 10 cm dish, and culturing was carried out in Roswell Park Memorial Institute 1640 (RPMI 1640, Sigma), to which 10% fetal bovine serum (Fetal bovine serum, FBS) and 5% L-glutamine were added, for 18 hours. Culturing conditions were 37° C. and 5% CO2 unless otherwise specified. Furthermore, 1×10^6 A549 cells were plated on a 10 cm dish, and culturing was carried out in Dulbecco's modified Eagle's medium (DMEM, Sigma), to which 10% FBS and 10% L-glutamine were added, for 18 hours. […]
(§2) In order to optimize the concentration of siRNA, a final concentration of 10 to 50 nM of GST-π siRNA or Akt siRNA was added to a dish containing PANC-1 cells or A549 cells flushed with 10 mL of PTI-MEM, culturing was carried out at room temperature for 5 hours, the medium was replaced (RPMI 1640 containing 5% FBS for PANC-1 cells and DMEM containing 10% FBS for A549 cells), and culturing was carried out for 2 hours. […] Subsequently, every 24 hours, the cells were detached by treatment with trypsin and harvested from the dish, and the number of cells was counted.
(§3) In order to test the effect when GST-π siRNA and Akt siRNA are made to act at the same time, a Lipofectamine/siRNA mixed solution in which GST-π siRNA and Akt siRNA were mixed was added to each of the cells in the same way as above, and the number of cells was counted. […]

[5] = test system: PANC-1 cells; experiment: Autophagy by western blot of LC3 type I/type II shift in PANC-1 cells; format: cell-based; conditions: each siRNA 10 nM, 3 days culture, FIG. 6
Description: 1×10^6 PANC-1 cells were plated on a 10 cm dish, and culturing was carried out in RPMI 1640, to which 10% FBS and 5% L-glutamine were added, for 24 hours. […] The cells on the dish were washed with ice-cooled PBS, and an ice-cooled Lysis buffer was then added to thus break the cells. The Lysis buffer was prepared by mixing 100 μL of NP-40 Alternative, PROTEIN GRADE® Detergent, 10% Solution, Sterile-Filtered (CALBIOCHEM), 500 μL of 1 M Tris-HCl (pH 7.5), 300 μL of 5 M NaCl, 20 μL of 0.5 M EDTA, and […] of sterile water. The cell lysate was collected using a cell scraper and ice-cooled for 30 minutes. During this process, inversion mixing was carried out every 10 minutes. The solution thus obtained was subjected to centrifugation at 15000 rpm and 4° C. for 15 minutes, and the supernatant was collected, thus giving a cell extract. This cell extract was subjected to western blot analysis. A reaction with a transfer membrane was carried out at 4° C. for 16 hours using anti-LC3B antibody (SIGMA) as a primary antibody. Detection of LC3 molecules was carried out using a chemiluminescent reagent after a reaction with HRP-labeled secondary antibody. Whether or not autophagy was induced was evaluated by a shift to LC3 type I (18 kDa) and type II (16 kDa).

[6] = test system: A549 cells; experiment: Cell proliferation (cell counting) after siRNA knockdown in A549 cells; format: cell-based; conditions: 10 to 50 nM siRNA tested, cell number 4 days after transfection, FIG. 2
Description: as §1, §2, §3

[7] = test system: PANC-1 cells; experiment: Cell morphology / dead cells after siRNA knockdown in PANC-1 cells; format: cell-based; conditions: double knockdown compared with single
Description: 1×10^6 PANC-1 cells were plated on a 10 cm dish, and culturing was carried out in Roswell Park Memorial Institute 1640 (RPMI 1640, Sigma), to which 10% fetal bovine serum (Fetal bovine serum, FBS) and 5% L-glutamine were added, for 18 hours. Culturing conditions were 37° C. and 5% CO2 unless otherwise specified. Furthermore, 1×10^6 A549 cells were plated on a 10 cm dish, and culturing was carried out in Dulbecco's modified Eagle's medium (DMEM, Sigma), to which 10% FBS and 10% L-glutamine were added, for 18 hours. The respective media were replaced, and 2 hours later 20% to 30% confluent PANC-1 or A549 cells were transfected with GST-π siRNA and/or Akt siRNA using Lipofectamine RNAiMAX (Life Technologies).
A Lipofectamine/siRNA mixed solution for transfection was prepared as follows. First, 35 μL of Lipofectamine RNAiMAX and 965 μL of OPTI-MEM (Sigma) were mixed to thus prepare a Lipofectamine solution. […]
as §3

Akt1, sequence (P31749 whole entry): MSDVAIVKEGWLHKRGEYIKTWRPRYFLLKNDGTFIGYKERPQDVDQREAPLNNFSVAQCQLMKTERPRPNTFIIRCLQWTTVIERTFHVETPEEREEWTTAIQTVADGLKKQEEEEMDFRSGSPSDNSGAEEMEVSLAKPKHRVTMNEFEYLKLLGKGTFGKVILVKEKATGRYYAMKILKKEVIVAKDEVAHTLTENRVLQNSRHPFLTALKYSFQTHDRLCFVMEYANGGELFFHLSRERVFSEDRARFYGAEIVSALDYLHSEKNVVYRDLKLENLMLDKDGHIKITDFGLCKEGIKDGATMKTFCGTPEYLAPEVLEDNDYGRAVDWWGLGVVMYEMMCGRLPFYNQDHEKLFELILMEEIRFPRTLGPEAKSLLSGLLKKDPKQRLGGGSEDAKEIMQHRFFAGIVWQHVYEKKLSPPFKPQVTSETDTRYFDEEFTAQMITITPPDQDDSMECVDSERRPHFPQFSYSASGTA
Akt2, sequence (P31751 whole entry, species assumed): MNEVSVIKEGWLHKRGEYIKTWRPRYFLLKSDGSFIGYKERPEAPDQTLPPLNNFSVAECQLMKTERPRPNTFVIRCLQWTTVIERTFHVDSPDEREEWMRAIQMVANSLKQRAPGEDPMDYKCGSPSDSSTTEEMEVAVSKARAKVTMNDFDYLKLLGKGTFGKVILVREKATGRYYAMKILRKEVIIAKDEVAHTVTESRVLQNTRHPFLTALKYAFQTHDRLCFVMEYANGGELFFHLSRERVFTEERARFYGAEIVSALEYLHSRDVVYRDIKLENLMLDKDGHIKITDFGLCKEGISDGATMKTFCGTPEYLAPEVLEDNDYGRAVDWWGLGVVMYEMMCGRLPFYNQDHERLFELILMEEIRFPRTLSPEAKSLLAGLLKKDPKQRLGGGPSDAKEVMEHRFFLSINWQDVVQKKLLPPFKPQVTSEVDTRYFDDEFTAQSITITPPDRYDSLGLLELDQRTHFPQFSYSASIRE

Row | Molecule | effect on activation and phosphorylation of Akt2 [1] | effect on activation and phosphorylation of Akt1 [2] | inhibition of Akt3 [3] | final concentration at which the cell proliferation inhibition effect almost reaches a plateau [4] [nM] | autophagy (shift of LC3 type I to type II) [5] | final concentration at which the cell proliferation inhibition effect almost reaches a plateau [6] [nM] | dead cells (floating cells) [7]
1 | O=c1[nH]c2ccccc2n1C1CCN(Cc2ccc(-c3nc4cc5[nH]cnc5cc4nc3-c3ccccc3)cc2)CC1 [Akt Inhibitor VIII, 1,3-Dihydro-1-(1-((4-(6-phenyl-1H-imidazo[4,5-g]quinoxalin-7-yl)phenyl)methyl)-4-piperidinyl)-2H-benzimidazol-2-one] | selectively blocks activation and phosphorylation | selectively blocks activation and phosphorylation | does not inhibit | – | – | – | –
2 | GST-π siRNA: siRNA against GST-π; sense GGGAGGCAAGACCUUCAUUtt (SEQ ID No: 1), antisense AAUGAAGGUCUUGCCUCCCtg (SEQ ID No: 2) (sense GGGAGGCAAGACCUUCAUUTT; antisense AAUGAAGGUCUUGCCUCCCTG; chemistry not given here) | – | – | – | ~30 | autophagy induced | ~30 | a large number of floating cells (dead cells)
